Data as given in patent US20260347364A1, “PYRAZOLO[4,3-F]QUINAZOLINE DERIVATIVES AS MODULATORS OF G12D MUTANT KRAS USEFUL FOR THE TREATMENT OF CANCER” (JAZZ PHARMACEUTICALS IRELAND LTD., priority 2023, published 2026).

Key:
[1] = Metabolic stability in human liver hepatocytes (substrate depletion, intrinsic clearance); assay type: in vitro ADME; settings: 37° C., Williams E Media, LC-MS/MS depletion
Text: Determining the in vitro metabolic stability of a new chemical entity (NCE) is a very useful tool within drug discovery. A metabolic stability study will determine the in vitro intrinsic clearance (CLint) of a compound. The CLint value represents a measure of enzyme activity toward an NCE and is independent of other physiological factors such as blood flow. Determination of CLint within drug discovery helps to identify metabolic liabilities within a compound series, and ultimately assist in the identification of compounds with improved metabolic stability. The CLint value determined in vitro can be used to predict in vivo clearance (using species specific scaling factors) in pre-clinical species and ultimately in human. The liver is the primary organ involved in drug metabolism, of which there are two pathways-Phase I and Phase II. Phase I metabolism is primarily oxidative with the majority of these oxidations catalysed by cytochrome P450 enzymes (CYPs) which are located in the smooth endoplasmic reticulum (ER) in the liver. Phase II metabolism is catalysed by various conjugative enzymes which are located mainly in the ER and the cytosol. The in vitro systems used to study drug metabolism are mainly subcellular fractions such as liver microsomes or whole cells (hepatocytes) isolated from the liver. Hepatocytes, being whole cells, contain both Phase I and Phase II metabolizing enzymes and produce their own cofactors. This assay determines the metabolic stability of test compounds in human liver hepatocytes using the substrate depletion approach. The lower limit of the assay is a T1/2 >462 min and a CLint […]. Therefore the upper limit of the assay is 277 μL/min/106 cells. Any CLint value higher than this should be given an out of range value. Hepatocytes were plated in Williams E Media with added L-glutamine, compounds were added as 1 mM DMSO solution and incubated at 37° C. Compound depletion was measured by LC-MS/MS at multiple time points following quenching with cold acetonitrile. CLint was calculated from the following equation:
CLint(μl/min/106cells)=(In(2)/T1/2)*1000/cell density(10^6cells/mL)

[2] = target: T1, KRAS G12D (Homo sapiens, UniProt P01116, G12D); assay: HTRF nucleotide exchange assay, KRAS G12D; assay type: biochemical; settings: class symbols; for IC50: HTRF nucleotide exchange assay (NEA)
T1 construct: aa1-188 KRAS WT, HRAS WT, NRAS WT, or KRAS containing the G12D

[3] = target: T2, KRAS WT (Homo sapiens, UniProt P01116); assay: HTRF nucleotide exchange assay, KRAS WT; assay type: biochemical; settings: class symbols; for IC50: HTRF nucleotide exchange assay (NEA)
T2 construct: aa1-188 KRAS WT

[4] = target: T3, KRAS G12V (Homo sapiens, UniProt P01116, G12V); assay: HTRF nucleotide exchange assay, KRAS G12V; assay type: biochemical; settings: HTRF nucleotide exchange assay (NEA), class symbols
T3 construct: 4 nM KRAS; aa1-188 containing the G12V, G12C, G12A or G12S amino acid substitution
Procedure: HTRF Nucleotide Exchange Assay Method
The capacity of compounds to bind KRAS G12D, other KRAS mutants and wildtype RAS isoforms was quantified using a HTRF nucleotide exchange assay. Recombinant human RAS protein (2 nM; aa1-188 KRAS WT, HRAS WT, NRAS WT, or KRAS containing the G12D, G13D or Q61H amino acid substitutions, or 4 nM KRAS; aa1-188 containing the G12V, G12C, G12A or G12S amino acid substitution, an N-terminal 6× His-tag and leader sequence), and 2 nM Europium-labeled anti-6× His antibody were mixed in assay buffer (10 mM HEPES pH 7.3, 150 mM NaCl, 5 mM MgCl2, 0.05% BSA, 0.0025% NP-40 and 100 mM KF) with various concentrations of compound in a 384-well plate and a volume of 5 μL. After a 60-minute incubation at room temperature, 5 μl of 200 nM EDA-GTP-DY647P1 (diluted in assay buffer) was added to the plate. Following 30-minute incubation at room temperature, time-resolved fluorescence was measured on a PerkinElmer Envision plate reader. DMSO (0.3%) and unlabeled GDP (1 μM) or equivalent tool compound were used to generate the Max and Min assay signals, respectively. Data was analysed using a four-parameter logistic model to calculate IC50 values, with at least two independent replicates were performed for each compound. The results are presented as IC50s in Table 29 where “A” corresponds to an IC50 ≤10 nM, “B” to an IC50 >10 nM up to 100 nM, “C” is >100 nM up to 10 μM, “D” represents <49% inhibition at 10 μM and ND=not determined: […]

SMILES | hepatocyte CLint [1] | IC50 [2] | IC50 [3] | IC50 [4] | KRAS^G12D NEA [2] | KRAS^WT NEA [3]
C#Cc1c(F)ccc2cc(O)cc(-c3ccc4c(N5CCCOCC5)nc(OC[C@@]56CCCN5C[C@H](F)C6)nc4c3F)c12 [WO2022258974 Example 26, reference compound] | 94.6 µL/min/1e6 cells | – | – | – | – | –
CCc1c(F)ccc2cc(O)cc(-c3c(F)c4nc(OCC56CCCN5CCC6)nc(N5CCOCC(C)(O)C5)c4c4cn(C)nc34)c12 (stereo not shown) [Example 160, 4-[4-(8-ethyl-7-fluoro-3-hydroxy-1-naphthyl)-5-fluoro-7-(1,2,3,5,6,7-hexahydropyrrolizin-8-ylmethoxy)-2-methyl-pyrazolo[4,3-f]quinazolin-9-yl]-6-methyl-1,4-oxazepan-6-ol] | – | ≤ 0.01 µM | ≤ 0.01 µM | – | – | –
CCc1c(F)ccc2cc(O)cc(-c3c(F)c4nc(OCC5COCCN5C)nc(N5CCOCC(C)(O)C5)c4c4cn(C)nc34)c12 (stereo not shown) [Example 232, 4-[4-(8-ethyl-7-fluoro-3-hydroxy-1-naphthyl)-5-fluoro-2-methyl-7-[(4-methylmorpholin-3-yl)methoxy]pyrazolo[4,3-f]quinazolin-9-yl]-6-methyl-1,4-oxazepan-6-ol] | – | 0.01 to 0.1 µM | 0.01 to 0.1 µM | – | – | –
CN(C)C(=O)c1cc2n(n1)CCCN(c1nc(OC[C@@]34CCCN3C[C@H](F)C4)nc3cc(-c4cccc5[nH]nc(C#N)c45)c4nn(C)cc4c13)C2 [Example 83, 5-[4-(3-cyano-1H-indazol-4-yl)-2-methyl-7-[[(2R,8S)-2-fluoro-1,2,3,5,6,7-hexahydropyrrolizin-8-yl]methoxy]pyrazolo[4,3-f]quinazolin-9-yl]-N,N-dimethyl-4,6,7,8-tetrahydropyrazolo[1,5-a][1,4]diazepine-2-carboxamide] | – | – | – | – | D (<49% inhibition at 10 μM) | D (<49% inhibition at 10 μM)
CN(C)C(=O)c1cc2n(n1)CCCN(c1nc(OC[C@@]34CCCN3C[C@H](F)C4)nc3cc(-c4cc(O)c(F)c5ccccc45)c4nn(C)cc4c13)C2 [Example 61, 5-[4-(4-fluoro-3-hydroxy-1-naphthyl)-2-methyl-7-[[(2R,8S)-2-fluoro-1,2,3,5,6,7-hexahydropyrrolizin-8-yl]methoxy]pyrazolo[4,3-f]quinazolin-9-yl]-N,N-dimethyl-4,6,7,8-tetrahydropyrazolo[1,5-a][1,4]diazepine-2-carboxamide] | – | 0.01 to 0.1 µM | 0.1 to 10 µM | – | – | –
CCc1c(F)ccc2cc(O)cc(-c3c(C)c4nc(OC[C@@H]5C[C@@H](F)CN5)nc(N5CCOCC(C)(O)C5)c4c4cn(C)nc34)c12 (stereo partly drawn) [Example 140, 4-[4-(8-ethyl-7-fluoro-3-hydroxy-1-naphthyl)-2,5-dimethyl-7-[[(2S,4R)-4-fluoropyrrolidin-2-yl]methoxy]pyrazolo[4,3-f]quinazolin-9-yl]-6-methyl-1,4-oxazepan-6-ol] | – | ≤ 0.01 µM | ≤ 0.01 µM | – | – | –
CCc1c(F)ccc2cc(O)cc(-c3c(F)c4nc(OCC5(CN(C)CC)CC5)nc(N5CCOCC(C)(O)C5)c4c4cn(C)nc34)c12 (stereo not shown) [Example 212, 4-[4-(8-ethyl-7-fluoro-3-hydroxy-1-naphthyl)-7-[[1-[[ethyl(methyl)amino]methyl]cyclopropyl]methoxy]-5-fluoro-2-methyl-pyrazolo[4,3-f]quinazolin-9-yl]-6-methyl-1,4-oxazepan-6-ol] | – | ≤ 0.01 µM | ≤ 0.01 µM | – | – | –

More lines, now with the values ahead:

hepatocyte CLint [1] | IC50 [2] | IC50 [3] | IC50 [4] | KRAS^G12D NEA [2] | KRAS^WT NEA [3] | SMILES
95.6 µL/min/1e6 cells | – | – | – | – | – | C#Cc1c(F)ccc2cc(O)cc(-c3ncc4c(N5CCCCCC5)nc(OC[C@@]56CCCN5C[C@H](F)C6)nc4c3F)c12 [WO2022248885 Example 84, reference compound]
42.5 µL/min/1e6 cells | 0.1 to 10 µM | 0.1 to 10 µM | – | – | – | CCc1c(F)ccc2cc(O)cc(-c3cc4nc(OC[C@@]56CCCN5C[C@H](F)C6)nc(N5CCCCCC5)c4c4cn(C)nc34)c12 [Example 9, 4-[9-(azepan-1-yl)-2-methyl-7-[[(2R,8S)-2-fluoro-1,2,3,5,6,7-hexahydropyrrolizin-8-yl]methoxy]pyrazolo[4,3-f]quinazolin-4-yl]-5-ethyl-6-fluoro-naphthalen-2-ol]
– | ≤ 0.01 µM | ≤ 0.01 µM | ≤ 0.01 µM | – | – | CCc1c(F)ccc2cc(O)cc(-c3cc4nc(OC[C@@]56CCCN5C[C@H](F)C6)nc(N5CCCC(C)(O)C5)c4c4cn(C)nc34)c12 (mixture of isomers) [Example 7, 1-[4-(8-ethyl-7-fluoro-3-hydroxy-1-naphthyl)-2-methyl-7-[[rac-(2R,8S)-2-fluoro-1,2,3,5,6,7-hexahydropyrrolizin-8-yl]methoxy]pyrazolo[4,3-f]quinazolin-9-yl]-3-methyl-piperidin-3-ol]
54.2 µL/min/1e6 cells | ≤ 0.01 µM | ≤ 0.01 µM | – | – | – | C#Cc1c(F)ccc2cc(O)cc(-c3cc4nc(OC[C@@]56CCCN5C[C@H](F)C6)nc(N5CCCOCC5)c4c4cn(C)nc34)c12 [Example 2, 5-ethynyl-6-fluoro-4-[2-methyl-9-(1,4-oxazepan-4-yl)-7-[[(2R,8S)-2-fluoro-1,2,3,5,6,7-hexahydropyrrolizin-8-yl]methoxy]pyrazolo[4,3-f]quinazolin-4-yl]naphthalen-2-ol]
47.8 µL/min/1e6 cells | 0.01 to 0.1 µM | 0.01 to 0.1 µM | – | – | – | C#Cc1c(F)ccc2cc(O)cc(-c3cc4nc(OC[C@@]56CCCN5C[C@H](F)C6)nc(N5CCCCCC5)c4c4cn(C)nc34)c12 [Example 12, 4-[9-(azepan-1-yl)-2-methyl-7-[[(2R,8S)-2-fluoro-1,2,3,5,6,7-hexahydropyrrolizin-8-yl]methoxy]pyrazolo[4,3-f]quinazolin-4-yl]-5-ethynyl-6-fluoro-naphthalen-2-ol]
– | – | – | – | D (<49% inhibition at 10 μM) | D (<49% inhibition at 10 μM) | Cn1cc2c(n1)c(-c1cc(O)cc3c1C(=O)CCC3)cc1nc(OC[C@@]34CCCN3C[C@H](F)C4)nc(N3CCCOCC3)c12 [Example 58, 6-hydroxy-8-[2-methyl-9-(1,4-oxazepan-4-yl)-7-[[(2R,8S)-2-fluoro-1,2,3,5,6,7-hexahydropyrrolizin-8-yl]methoxy]pyrazolo[4,3-f]quinazolin-4-yl]tetralin-1-one]
– | 0.1 to 10 µM | 0.1 to 10 µM | – | – | – | Cn1cc2c(n1)c(-c1cc(O)ccc1OC(F)(F)F)cc1nc(OC[C@@]34CCCN3C[C@H](F)C4)nc(N3CCCOCC3)c12 [Example 38, 3-[2-methyl-9-(1,4-oxazepan-4-yl)-7-[[(2R,8S)-2-fluoro-1,2,3,5,6,7-hexahydropyrrolizin-8-yl]methoxy]pyrazolo[4,3-f]quinazolin-4-yl]-4-(trifluoromethoxy)phenol]
– | 0.01 to 0.1 µM | 0.1 to 10 µM | – | – | – | CCc1c(F)ccc2cc(O)cc(-c3cc4nc(OC[C@@]56CCCN5C[C@H](F)C6)nc(N5CCCC(C)(OC)C5)c4c4cn(C)nc34)c12 (stereo partly drawn) [Example 131, 5-ethyl-6-fluoro-4-[9-(3-methoxy-3-methyl-1-piperidyl)-2-methyl-7-[[(2R,8S)-2-fluoro-1,2,3,5,6,7-hexahydropyrrolizin-8-yl]methoxy]pyrazolo[4,3-f]quinazolin-4-yl]naphthalen-2-ol]
– | ≤ 0.01 µM | ≤ 0.01 µM | – | – | – | CCc1c(F)ccc2cc(O)cc(-c3c(F)c4nc(OC[C@@]56CCCN5C[C@H](F)C6)nc(N5CCCOCC5)c4c4cn(C)nc34)c12 [Example 88, 5-ethyl-6-fluoro-4-[5-fluoro-2-methyl-9-(1,4-oxazepan-4-yl)-7-[[(2R,8S)-2-fluoro-1,2,3,5,6,7-hexahydropyrrolizin-8-yl]methoxy]pyrazolo[4,3-f]quinazolin-4-yl]naphthalen-2-ol]
